Target: T1, ATG4B (Homo sapiens, UniProt Q9Y4P1)
T1 sequence (Q9Y4P1 1-393): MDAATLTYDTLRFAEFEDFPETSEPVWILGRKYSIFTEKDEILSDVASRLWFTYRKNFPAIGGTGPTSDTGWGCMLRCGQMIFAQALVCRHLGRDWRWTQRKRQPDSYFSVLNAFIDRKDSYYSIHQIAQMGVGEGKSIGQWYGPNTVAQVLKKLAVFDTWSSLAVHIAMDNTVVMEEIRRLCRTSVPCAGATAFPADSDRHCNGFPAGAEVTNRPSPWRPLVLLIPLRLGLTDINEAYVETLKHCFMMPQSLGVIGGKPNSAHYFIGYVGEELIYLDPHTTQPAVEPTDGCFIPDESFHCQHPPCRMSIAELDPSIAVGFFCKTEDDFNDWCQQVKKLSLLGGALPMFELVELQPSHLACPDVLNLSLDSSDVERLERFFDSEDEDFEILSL
Experiment: SPR (Biacore 8K, immobilized purified ATG4B); also FRET activity assay and gel-based FRET-GATE16 cleavage assay
Assay type: binding

CN=C(N)NCCC/C=C/CCCC(C)C1OC(=O)/C(C)=C\C=C/C(C)C(O)CC(O)C(C)C(O)CCC(C)C(O)CC2(O)OC(CC(OC(=O)CC(=O)O)CC(O)CC(O)CC(O)/C(C)=C\C=C/C1C)CC(O)C2O (stereo not shown) [Am-F4a, Azalomycin F4a] was tested, and the Kd was 11.8 µM.

Reference: article PMC8858318, “Targeting autophagy peptidase ATG4B with a novel natural product inhibitor Azalomycin F4a for advanced gastric cancer” (Cell Death & Disease, 2022)
